The source of these data is patent US20040102606A1, “Histone H2A -derived peptides useful in gene delivery” (priority 2003, published 2004).

Series [1] deals with COS-7 cells. Briefly: Transfection assay (β-galactosidase reporter plasmid pCMVβ complexed with H2A-derived peptide). The class given is cell-based, African green monkey. As to conditions: for transfection activity (β-galactosidase production): peptide at equimolar ratio to peak conditions of peptide 1 (36-mer), also 2× and ½× molar, FIG. 1; for transfection activity (DNA delivery) at the 17-mer's own optimal concentration: much higher molar ratio than 36-mer. From the text: The transfection assay is based on an in vitro assay previously described by J. H. Felgner et al. (Feigner et al., Proc. Natl. Acad. Sci., USA, 84:7413-7417, […]) with the following modifications: COS-7 (African green monkey SV40-transformed kidney cells, American Type Culture Collection, Rockville, Md.) were maintained in Dulbecco's modified eagle's medium (Biowhittaker, Walkersville, Md.) supplemented with 10% heat inactivated fetal bovine serum (Gemini Bio-products Inc., Calabras, Calif.), […] glutamine (Gemini Bio-products Inc., Calabras, Calif.), and 100U Penicillin-100 μg Streptomycin (Gemini Bio-products Inc., Calabras, Calif.). Other cells useful for transfection are 3T3, CHO-K1, HEPG2 and the like cell lines. The cells were harvested with 0.05% Trypsin-0.53 mM EDTA4Na (Life Technologies, Gaithersburg, Md.), pelleted, resuspended in their usual culture medium, diluted in 0.85% NaCl (Sigma, St. Louis, Mo.), and counted in a Coulter Z1® apparatus (Coulter Corporation, Miami, Fla.). COS-7 cells were plated in 96-well flat bottom tissue culture treated polystyrene plates (Corning Inc., Corning, N.Y.) at a density of […] cells per well and grown overnight in a humidified incubator at 37° C. in the presence of 4% CO2. Culture medium was aspirated from the overnight cultures of COS-7 cells, and the cells were overlaid with 75 μl/well of the binary DNA-histone H2A-derived peptide complex, or the corresponding controls. Four hours after transfection, 37.5 μl of Opti-MEM®1, a Tris-Acetate-based (Life Technologies, Gaithersburg, Md.) containing 30% heat inactivated fetal bovine serum (Gemini Bio-products Inc., Celebres, Calif.) was added to each well. Twenty-four hours post-transfection […] of Opti-MEM®1 containing 10% heat inactivated fetal bovine serum (Gemini Bio-products Inc., Celebres, Calif.) was added to each well Forty-eight hours post-transfection, all of the medium in each well was removed. Fifty μl of lysis buffer (0.1% Triton X-100, […] Tris pH 8.0) was added to each well. The plates were then frozen at −70° C. and thawed once. Fifty μl of phosphate-buffered saline (PBS) pH 7.4 was added to each well except for the last column The last column was reserved for a β-galactosidase standard curve. […] In the presence of β-galactosidase, D-galactose is released from CPRG, yielding chlorophenol red; the red reaction product was used to quantitate the amount of β-galactosidase produced. […] The plates were read in a Thermomax plate reader (Molecular Devices Incorporated, Sunnyvale, Calif.) at 575 nm. The optical density values obtained in test wells were then compared to those in the column containing the β-galactosidase standard and the result was expressed as the quantity of β-galactosidase produced per well. […]

The test system of a further series is COS7 cells. As to conditions: polymers in equimolar ratios to their representation in histone H2A; cited from earlier work.
The subject of series [2] is COS-7 cells. Briefly: X-gal staining of transfected cells. The series is classed as cell-based, African green monkey. The text has this: The difference between one of the effective peptides (amino acids 1-36) and the peptide composed of the first 25 amino acids is the inclusion of an α-helical motif located between amino acids 27-35.
The nature of a further series: Circular dichroism. The class given is physicochemical. To be noted: 70 μM in 120 mM Tris acetate pH 8; 200-260 nm. The procedure: Circular dichroism experiments were performed using a Circular Dichroism Spectrometer (model 62DS) at wavelengths ranging from 200-260 nm In all cases, three readings were taken of a 300 μl sample of 70 μM histone H2A or 70 μM histone H2A-derived peptide in 120 mM Tris acetate pH 8. The average reading for every wavelength tested is plotted as a function of degrees of ellipticity.
Circular dichroism of peptide was performed on four samples: the full length histone H2A molecule, peptide 1 (36-mer), peptide P1 (17-mer) and peptide 12.

Regarding KTRSSRAGLQFPVGRVHRIIRK [Peptide 5R], the “transfection activity (β-galactosidase production)” value in the series with COS-7 cells [1] is recorded as “significant activity”.
On to `NCCCCNCCCN` [spermidine], for which, in the series on COS7 cells, the “transfection (β-galactosidase reporter plasmid)” value is reported as “ineffective”.
Regarding `NCCCNCCCCNCCCN` [spermine], the “transfection (β-galactosidase reporter plasmid)” value in the series on COS7 cells is listed as “ineffective”.
For “P1: 17-mer that represents amino acids 18-34 of the histone H2A molecule (RSSRAGLQFPVGRVHRL; UniProt P0C0S8 18-34, looked up, fragment) [Peptide P1]”, the “transfection activity (DNA delivery) at the 17-mer's own optimal concentration” value with COS-7 cells [1] (FIG. 2) was “effective in DNA transfection and delivery”; in the series with COS-7 cells [1] (FIG. 2, listed as 17-mer), “active in DNA delivery”. Also, in the series on COS-7 cells [1], the “transfection activity (β-galactosidase production)” value is “only background activity”. Also, the “COS-7 cells transfected (X-gal staining)” value in the series on COS-7 cells [2] is given as “less than 1%”. Besides, in “Circular dichroism”, the “circular dichroism, α-helical structure (minima at 208 and 222 nm)” value was “some degree of minima at around 208”.
